As a reminder, the IC50 is the midpoint of a concentration-inhibition curve. The inhibition is the relative decrease from the control value, in per cent.

The values below come from PMC7614687, “Modulation of the substrate specificity of the kinase PDK1 by distinct conformations of the full-length protein*” (Science signaling, 2023).

Read-outs that look alike come from different tables or passages of the source. A value given as a limit tells only on which side of the number the result lay.

Experiment [1] concerns PDK1. Further details: method as in PMID 20051961. The conditions noted are these: read-out: IC50, in vitro inhibitor of PDK1; cited from earlier work.
In experiment [2] the target is T1, PDK1 (Homo sapiens, UniProt O15530).
T1 sequence (O15530 1-556): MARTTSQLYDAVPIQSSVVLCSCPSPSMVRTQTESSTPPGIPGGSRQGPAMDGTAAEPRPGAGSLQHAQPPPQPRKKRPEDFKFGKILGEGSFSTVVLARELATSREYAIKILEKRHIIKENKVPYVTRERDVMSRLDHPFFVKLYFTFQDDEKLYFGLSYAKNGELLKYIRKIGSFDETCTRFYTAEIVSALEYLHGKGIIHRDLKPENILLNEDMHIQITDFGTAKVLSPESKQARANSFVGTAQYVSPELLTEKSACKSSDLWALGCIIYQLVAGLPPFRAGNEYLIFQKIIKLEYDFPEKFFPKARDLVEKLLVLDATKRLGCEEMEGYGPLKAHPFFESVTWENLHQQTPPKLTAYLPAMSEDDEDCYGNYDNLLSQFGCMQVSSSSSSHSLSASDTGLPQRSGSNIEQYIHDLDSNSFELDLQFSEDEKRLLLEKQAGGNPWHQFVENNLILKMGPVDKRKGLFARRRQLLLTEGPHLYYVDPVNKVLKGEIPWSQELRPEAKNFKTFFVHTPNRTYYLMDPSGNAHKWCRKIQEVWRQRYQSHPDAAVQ
Nature of the experiment: Thermo Fisher "PDK1 Direct" assay (peptide Ser/Thr 07, FRET readout). In kind it is biochemical. The conditions noted are these: 1 μM.

Experiment [3] has as its target T2, GST-PDK1_1-556 (Homo sapiens, UniProt O15530).
T2 construct: made in house; host or cells: HEK293 cells (transient transfection of pEBG2T); peptide synthesized by Pepscan
T2 sequence (O15530 1-556): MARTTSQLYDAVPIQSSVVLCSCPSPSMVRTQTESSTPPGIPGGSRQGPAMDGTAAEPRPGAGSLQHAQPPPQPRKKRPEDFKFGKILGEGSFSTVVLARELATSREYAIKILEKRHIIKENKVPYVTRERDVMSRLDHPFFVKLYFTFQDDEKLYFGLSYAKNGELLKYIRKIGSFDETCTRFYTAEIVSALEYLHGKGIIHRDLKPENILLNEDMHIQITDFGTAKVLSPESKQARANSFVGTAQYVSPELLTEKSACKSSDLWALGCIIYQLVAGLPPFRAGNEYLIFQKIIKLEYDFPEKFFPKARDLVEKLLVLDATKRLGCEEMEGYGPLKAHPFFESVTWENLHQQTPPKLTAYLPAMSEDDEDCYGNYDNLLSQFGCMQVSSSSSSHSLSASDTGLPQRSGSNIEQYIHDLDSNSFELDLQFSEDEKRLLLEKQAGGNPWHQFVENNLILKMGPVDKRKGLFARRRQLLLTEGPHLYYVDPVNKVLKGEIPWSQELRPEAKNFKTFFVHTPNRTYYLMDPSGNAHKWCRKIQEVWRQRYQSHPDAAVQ
The experiment is described as follows: AlphaScreen biotin-PIP3 / GST-PDK1_1-556 displacement. The experiment is classed as binding. Conditions: PIP3 20 nM, GST-PDK1 3 nM. On the procedure: (§1) The AlphaScreen® assay was performed following the general guidelines from the manufacturer (Perkin Elmer) ([29]). In short, the assay was performed in a final volume of 25 μl in white 384-well microtiter plates (Greiner) in a standard buffer containing 50 mM Tris-HCl (pH 7.4), 100 mM NaCl, 2 mM DTT, 0.01% (v/v) Tween-20 and 0.1% (w/v) BSA, with the addition of 5 μl of beads (anti-GST coated acceptor beads and streptavidin-coated donor beads; nickel chelate-coated acceptor beads and streptavidin-coated donor beads; or nickel chelate-coated acceptor beads and GSH-coated donor beads, 20 μg/ml final concentrations for each bead type). AlphaScreen assays for His-tagged proteins and GST-fusion proteins were performed using nickel chelate-coated acceptor beads and GSH-coated donor beads; alphascreen assays for His-tagged proteins and biotinylated molecules were performed using nickel chelate-coated acceptor beads and streptavidin-coated donor beads; alphascreen assays for GST-fusion proteins and biotinylated molecules were performed using anti-GST coated acceptor beads and streptavidin-coated donor beads (Perkin Elmer).
The conditions for each AlphaScreen assay were identified in cross-titration experiments for each interaction to choose the ideal pair of concentrations within the linear range of the interactions. As required, the standard conditions were modified to use less material, to increase binding of the interacting molecules, to lower background signal, and so on. His-PDK1 and GST-fusion protein in the presence or absence of the different compounds were incubated in the dark for 60 min at room temperature and the emission of light from the acceptor beads was measured in an EnVision reader (Perkin Elmer) or Spark plate reader (Tecan). AlphaScreen assays were performed at least twice, although most experiments were performed multiple times by different researchers with different batches of purified proteins with similar results.
(§2) Biotin-PIP3 interactions with GST-PDK1_1-556 or GST-PDK1_360-556 were assessed in the standard buffer. […]
(In general: Bead proximity is the source of the signal in Alpha formats.)

The target in a further experiment is T3, GST-PDK1_360-556 (Homo sapiens, UniProt O15530).
T3 construct: GST-PDK1_360-556 (GST-PDK1-Linker-PH) was cloned into the BamHI-KpnI sites in pEBG2T plasmid; made in house; host or cells: HEK293 cells (transient transfection of pEBG2T)
T3 sequence (O15530 360-556): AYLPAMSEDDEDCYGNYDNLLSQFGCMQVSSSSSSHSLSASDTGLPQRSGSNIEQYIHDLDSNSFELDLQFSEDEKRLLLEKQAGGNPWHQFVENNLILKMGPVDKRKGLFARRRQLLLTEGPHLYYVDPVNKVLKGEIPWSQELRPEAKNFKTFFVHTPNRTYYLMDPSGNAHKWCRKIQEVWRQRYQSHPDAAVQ
Nature of the experiment: AlphaScreen biotin-PIP3 / GST-PDK1_360-556 (linker-PH domain) displacement. The experiment is classed as binding. The conditions noted are these: PIP3 20 nM, GST-PDK1 3 nM. On the procedure:
The AlphaScreen® assay was performed following the general guidelines from the manufacturer (Perkin Elmer) ([29]). In short, the assay was performed in a final volume of 25 μl in white 384-well microtiter plates (Greiner) in a standard buffer containing 50 mM Tris-HCl (pH 7.4), 100 mM NaCl, 2 mM DTT, 0.01% (v/v) Tween-20 and 0.1% (w/v) BSA, with the addition of 5 μl of beads (anti-GST coated acceptor beads and streptavidin-coated donor beads; nickel chelate-coated acceptor beads and streptavidin-coated donor beads; or nickel chelate-coated acceptor beads and GSH-coated donor beads, 20 μg/ml final concentrations for each bead type). […]
(§3) The conditions for each AlphaScreen assay were identified in cross-titration experiments for each interaction to choose the ideal pair of concentrations within the linear range of the interactions. […] His-PDK1 and GST-fusion protein in the presence or absence of the different compounds were incubated in the dark for 60 min at room temperature and the emission of light from the acceptor beads was measured in an EnVision reader (Perkin Elmer) or Spark plate reader (Tecan). […]
as §2

The target in another experiment is T4, PDK1_1-556 (Homo sapiens, UniProt O15530).
T4 construct: effect of HYG8 on the thermal stability (ΔTm) of PDK1_1-556 (H) and PDK1_50-359 (I); His (N); made in house; host or cells: Sf9 insect cells (baculovirus)
T4 sequence (O15530 1-556): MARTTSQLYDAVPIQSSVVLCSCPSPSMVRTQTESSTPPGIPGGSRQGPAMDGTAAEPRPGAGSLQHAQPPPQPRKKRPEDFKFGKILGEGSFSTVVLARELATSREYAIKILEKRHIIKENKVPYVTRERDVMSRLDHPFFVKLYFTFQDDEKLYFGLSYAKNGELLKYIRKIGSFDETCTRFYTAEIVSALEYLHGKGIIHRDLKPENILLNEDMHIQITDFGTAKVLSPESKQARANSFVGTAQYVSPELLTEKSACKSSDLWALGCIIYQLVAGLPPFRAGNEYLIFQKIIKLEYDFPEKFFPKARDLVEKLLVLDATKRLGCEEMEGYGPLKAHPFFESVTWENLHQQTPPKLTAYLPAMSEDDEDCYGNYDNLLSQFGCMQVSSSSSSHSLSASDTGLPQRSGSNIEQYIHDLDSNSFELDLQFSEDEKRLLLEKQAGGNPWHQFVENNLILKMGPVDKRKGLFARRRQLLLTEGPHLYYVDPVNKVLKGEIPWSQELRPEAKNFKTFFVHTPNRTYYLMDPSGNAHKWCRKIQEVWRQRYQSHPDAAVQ
Nature of the experiment: Differential scanning fluorimetry, thermal stability of PDK1_1-556. In kind it is binding. The conditions noted are these: PDK1 1 μM. On the procedure: The thermal stability of PDK1 was assessed by monitoring the unfolding of PDK1 by the increase in the fluorescence of SYPRO Orange (Invitrogen) using a real-time PCR device (StepOnePlus, Applied Biosystems and BioRad CFX96) following a previously described protocol ([70]). The reactions were performed in a final volume of 10 μl in white 96-well PCR microtiter plates (Greiner) and contained 1 μM PDK1, 10 mM HEPES (pH 7.5), 150 mM NaCl, 1/1000 SYPRO Orange and 1 mM dithiothreitol. For valsartan, the assay buffer was modified to exclude NaCl. PIFtide or compounds (at a final DMSO concentration of 1%) were added to this reaction mixture. The temperature gradient was performed in steps of 0.3 °C in the range from 25 to 70 °C. To calculate the Tm values, data were exported to GraphPad Prism and curves fitted to a Boltzmann sigmoidal equation with an acceptable confidence interval of 95%. Statistical analysis was performed with Infostat software (http://www.infostat.com.ar) and GraphPad Prism by first verifying a normal distribution of pooled residuals (Shapiro-Wilks test) and homogeneity of variance (F test), and then performing a one-way ANOVA followed by the post hoc comparisons test indicated in each figure legend.

In experiment [4] the target is T5, His-PDK1_1-556 and GST-PDK1_360-556 (Homo sapiens, UniProt O15530).
T5 construct: made in house; host or cells: Sf9 insect cells (His-PDK1_1-556); HEK293 cells (GST-PDK1_360-556)
T5 sequence (O15530 1-556): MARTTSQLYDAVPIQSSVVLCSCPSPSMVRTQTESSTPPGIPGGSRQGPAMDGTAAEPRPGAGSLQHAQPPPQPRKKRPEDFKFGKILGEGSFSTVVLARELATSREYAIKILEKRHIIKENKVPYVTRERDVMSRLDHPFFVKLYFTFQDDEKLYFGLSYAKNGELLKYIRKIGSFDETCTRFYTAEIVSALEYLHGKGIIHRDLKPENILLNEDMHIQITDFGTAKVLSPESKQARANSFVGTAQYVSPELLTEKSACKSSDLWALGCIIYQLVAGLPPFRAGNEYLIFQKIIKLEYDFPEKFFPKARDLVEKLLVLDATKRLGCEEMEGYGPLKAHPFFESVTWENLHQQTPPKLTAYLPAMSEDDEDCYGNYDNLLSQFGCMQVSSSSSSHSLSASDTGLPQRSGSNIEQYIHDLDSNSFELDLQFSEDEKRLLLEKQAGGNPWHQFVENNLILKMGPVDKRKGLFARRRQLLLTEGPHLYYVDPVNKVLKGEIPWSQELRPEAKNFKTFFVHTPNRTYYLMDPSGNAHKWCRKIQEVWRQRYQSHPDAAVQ
The experiment is described as follows: AlphaScreen PDK1 dimerization assay His-PDK1_1-556 / GST-PDK1_360-556. In kind it is binding. On the procedure:
as §1, §3

The target in experiment [5] is T2, GST-PDK1_1-556. Nature of the experiment: AlphaScreen GST-PDK1_1-556 / biotin-PIFtide interaction. The experiment is classed as binding. On the procedure:
as §1
The interaction between GST-PDK1_1-556 and biotin-PIFtide was performed as described previously ([29], [32]) in the standard buffer, but the bead concentration was lowered to 15 μg/ml.

On to `O=P(O)(O)OC1C(OCc2ccccc2)C(OP(=O)(O)O)C(OP(=O)(O)O)C(OP(=O)(O)O)C1OP(=O)(O)O` (centres unmarked) [2-O-benzyl-IP5], for which the IC50 in the experiment on PDK1 [1] is 0.026 µM.

For the molecule `NCCO[C@H]1[C@@H](OP(=O)(O)O)[C@H](OP(=O)(O)O)[C@@H](OP(=O)(O)O)[C@H](OP(=O)(O)O)[C@H]1OP(=O)(O)O` [AMR1474, 2-O-(2-aminoethyl)-IP5], the inhibition at 1 µM at PDK1 [2] (replicate point 1, read-out: % Inhibition Point 1) is 9%; at PDK1 [2] (replicate point 2, read-out: % Inhibition Point 2), 11%; at PDK1 [2] (single point, N=2, read-out: Inhibition at 1 μM (%)), at most 10%. Moreover, the “displacement of PIP3 from GST-PDK1_1-556” value on GST-PDK1_1-556 [3] is reported as “lacked or showed reduced ability to displace”. Moreover, on GST-PDK1_360-556, the “displacement of PIP3 from GST-PDK1_360-556” value is “lacked or showed reduced ability to displace”. The figures for the “Tm (°C), temperature stabilization of PDK1_1-556” value on PDK1_1-556 (compound 1 µM) and at PDK1_1-556 (compound 20 µM) were 2.9 °C and 6.0 °C, respectively. The IC50 in experiment [4] (absence of PIFtide, read-out: IC50 (nM), displacement of His-PDK1_1-556 interaction with GST-PDK1_360-556) turned out to be 458 nM; in experiment [4] (with PIFtide, read-out: IC50 (nM), displacement of His-PDK1_1-556 interaction with GST-PDK1_360-556 with PIFtide) it was 159 nM. Besides, on GST-PDK1_1-556 [5], the “effect on PDK1-PIFtide interaction” value is given as “virtually no effect”.
